Results on 4 molecules are retold here after EP0942911B1, “BENZOPYRANOPYRROLE AND BENZOPYRANOPYRIDINE ALPHA-1 ADRENERGIC COMPOUNDS” (Abbott Laboratories, priority 1996, dated 1998).

Counter-ions that a name gives are not always drawn.

In assay [1] the target is T1, α-1A adrenoreceptor (Rattus norvegicus, UniProt P43140).
T1 sequence (P43140 1-466): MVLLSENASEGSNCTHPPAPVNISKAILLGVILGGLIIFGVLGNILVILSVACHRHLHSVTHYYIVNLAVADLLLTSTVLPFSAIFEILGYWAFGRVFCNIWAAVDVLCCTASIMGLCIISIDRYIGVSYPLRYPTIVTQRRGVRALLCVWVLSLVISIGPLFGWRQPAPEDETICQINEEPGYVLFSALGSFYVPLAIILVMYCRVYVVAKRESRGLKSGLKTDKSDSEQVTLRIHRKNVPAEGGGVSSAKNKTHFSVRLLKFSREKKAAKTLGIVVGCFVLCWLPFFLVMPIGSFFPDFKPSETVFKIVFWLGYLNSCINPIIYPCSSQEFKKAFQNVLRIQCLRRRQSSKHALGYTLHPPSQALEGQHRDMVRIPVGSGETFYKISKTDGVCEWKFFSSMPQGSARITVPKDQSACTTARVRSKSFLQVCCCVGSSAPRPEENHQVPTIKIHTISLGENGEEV
In words: cell-based. As to conditions: phenylephrine-induced contraction, Schild plot; for Kb: read-out: In Vitro Characterization (pA2) Rat Vas (converted). The gist of the method: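 Phenylephrine dose-response curves for contraction were repeated against increasing test-agent concentrations. pA2 was derived by Schild plot [[…] vs log molarity of test agent].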

Another assay deals with α-1 Adrenoceptors. Description: Functional antagonism in rat aorta (method not described). It counts as cell-based.
The test system of assay [2] is α-1A adrenoreceptor. Description: Functional antagonism: inhibition of PE-induced contraction of canine prostate strips (Schild plot). It counts as cell-based. Conditions: phenylephrine-induced contraction. The text has this:
Canine prostate strips were used in vitro as previously described (Hieble, J.P., Boyce, A.J. and Caine, M., Fed. Proc., 45: 2609-2614 (1986)), to determine antagonist potencies against phenylephrine-induced contractions.
Functional assays indicative of pharmacologically defined α-1 adrenoreceptors were used to further characterize compounds. Inhibition of phenylephrine (PE)-induced contraction of canine prostate smooth muscle can be correlated with α-1A adrenoreceptor activation. […] For each of these models, agonist dose response curves were repeated against increasing concentrations of test agent to derive a Schild plot [log ([…]) against log (molarity of test agent)] to determine the pA2.

As for “3-[4-((3aR,9bR)-cis-9-Methoxy-1,2,3,3a,4,9b-hexahydro-[1]-benzopyrano[3,4-c]pyrrol-2-yl]butyl]-7-methoxy-pyrido[3',2':4,5]thieno[3,2-d]pyrimidine-2,4(1H,3H)-dione hydrochloride [Example 33]”, the “In Vitro Characterization (pA2) Rat Vas” value at α-1A adrenoreceptor [1] came out at 9.02. In addition, the “In Vitro Characterization (pA2) Rat Aorta” value with α-1 Adrenoceptors came out at 9.15.

Turning to `COc1cccc2c1[C@@H]1CN(CCCCn3c(=O)[nH]c4c(sc5ncc(-c6ccccc6)nc54)c3=O)C[C@@H]1CO2` [Example 39, 3-[4-((3aR,9bR)-cis-9-Methoxy-1,2,3,3a,4,9b-hexahydro-[1]-benzopyrano[3,4-c]pyrrol-2-yl)butyl]-8-phenyl-pyrazino[2',3':4,5]thieno[3,2-d]pyrimidine-2,4(1H,3H)-dione hydrochloride], the Kb at α-1A adrenoreceptor [1] was 0.162 nM. For the same molecule, the “In Vitro Characterization (pA2) Dog Prostate” value in the assay on α-1A adrenoreceptor [2] is 8.52.

Take `COc1cccc2c1[C@@H]1CN(CCCCn3c(=O)[nH]c4c(sc5ncc(-c6ccccc6)nc54)c3=O)C[C@H]1CO2` [Example 50, 3-[4-((3aS,9bR)-trans-9-Methoxy-1,2,3,3a,4,9b-hexahydro-[1]-benzopyrano[3,4-c]pyrrol-2-yl)butyl]-8-phenyl-pyrazino[2',3':4,5]thieno[3,2-d]pyrimidine-2,4(1H,3H)-dione hydrochloride]: at α-1A adrenoreceptor [1], the Kb is 0.0447 nM. For the same molecule, the “In Vitro Characterization (pA2) Dog Prostate” value with α-1A adrenoreceptor [2] is given as 8.45.

Consider `COc1cccc2c1[C@@H]1CCN(CCCCn3c(=O)[nH]c4c(sc5ncc(Cl)nc54)c3=O)C[C@H]1CO2` [Example 97, 3-[4-((4aS,10bR)-trans-10-Methoxy-1,3,4,4a,5,10b-hexahydro-2H-[1]-benzopyrano[3,4-c]pyrido-3-yl)butyl]-8-chloro-pyrazino[2',3':4,5]thieno[3,2-d]pyrimidine-2,4(1H,3H)-dione dihydrochloride], for which the Kb at α-1A adrenoreceptor [1] is 1.55 nM. Further, the “In Vitro Characterization (pA2) Dog Prostate” value with α-1A adrenoreceptor [2] came out at 8.6.
